Data on 6 molecules can be found in patent US20160340652A1, “CULTURE MEDIUM FOR STEM CELL DIFFERENTIATION” (The USA, as represented by the Secretary, Dept. of Health …, priority 2013, published 2016).

The subject of one experiment is hPSCs. Nature of the experiment: Cardiomyocyte differentiation in monolayer in E8 basal medium, CTNT/NKX2.5 flow cytometry and staining. To be noted: for efficiencies of cardiac differentiation: different WNT inhibitors in the presence of heparin, CTNT FACS, 10 days. The class given is cell-based, human. From the text:
(§1) Cardiomyocyte differentiation in monolayer: When hPSCs had grown to 80-90% confluent, 2-3 days after plating, the medium was changed from E8 to differentiation basal medium, which contains E8 basal medium (DMEM F-12, L-ascorbic acid, Selenium, Transferrin, and NaHCO3), 1× Chemically Defined Lipid Concentrate (100×, Life Technologies, 11905-031; a commercially-available lipid mixture of Arachidonic Acid, Cholesterol, DL-α-Tocopherol Acetate, Ethyl Alcohol 100%, Linoleic Acid, Linolenic Acid, Myristic Acid, Oleic Acid, Palmitic Acid, Palmitoleic Acid, Pluronic F-68, Stearic Acid, Tween 80™) and 1× Pen Strep (Life Technologies, 15140-122). That day was defined as day 0. CHIR99021 (5 uM, Tocris, 4423) was added into differentiation basal medium at day 0 for 24 hrs. IWP2 (3 uM, Tocris, 3533) was added from day 2 to day 5. Heparin was added into the medium at indicated dosages and timeline. Insulin (20 ug/ml, Sigma, 19278) was added into differentiation basal medium to maintain cardiomyocytes from day 7 onward. The medium was changed daily until day 7, and then changed every 2-3 days from day 7 onward. The growth factors, inhibitors, and enzymes used in culture were: Activin A (10 ng/ml, R&D, 338-AC/CF), BMP4 (10 ng/ml, R&D, 314-BP/CF), FGF2 (100 ng/ml, Peprotech, 100-18B), TGFβ1 (1.74 ng/ml, R&D, 240-B/CF), Dorsomorphin (3 μM, Stemgent, 04-0024), LDN-193189 (0.1 μM, Stemgent, 04-0074), PD0325901 (1 μM, Stemgent, 04-0008), SB431542 (3 μM, Selleckchem, s1067), Heparin (Sigma, H3149), Heparinase I (New England Biolabs, P0735S).
Immunofluorecence staining: Cells cultured in monolayer were fixed in 2% PFA for 10 minutes at room temperature, washed with PBS and permeabilized with 0.2% Triton X-100/PBS for 3 minutes. After successive washes in PBS, the cells were blocked in 10 mg/ml BSA for 30 minutes and incubated with primary antibody for 1 hour at room temperature. Cells were then washed 3 times with PBS for 5 minutes and incubated with secondary antibodies (Alexa 488 or 594-conjugated) for 1 hour. DAPI was applied for nuclei staining. The following primary antibodies were used for immunofluorescence: alpha actinin (mouse, 1:1000, A7811, Sigma), CTNI (cardiac troponin I, rabbit, 1:200, sc-15368, Santa Cruz), CTNT (cardiac troponin T, mouse, CT3, 1:1000, DSHB), Desmin (mouse, 1:100, M0760, DaKo) NKX2.5 (rabbit, ab35842; 1:200, Abcam).
Flow cytometry assay: Cells differentiated for 10 days in monolayer were dissociated with TrypLE (Invitrogen) for 5 minutes. Single cells were washed off and suspended by DMEM/10% FBS followed by centrifugation. The pellets were washed by PBS once and fixed by 2% PFA for 5 minutes. After washing with PBS and centrifuging, permeabilization was performed by 0.3% Triton X-100 for 3 minutes. The cells were centrifuged and re-suspended with 1% BSA to block unspecific binding of antibody, followed by incubation with primary antibodies (diluted in 1% BSA) for 1 hour. After washed, the cells were incubated with second antibodies conjugated with FITC or PE (Invitrogen, 1:1000 diluted in PBS) for 30 minutes. The cells were washed once and suspended in PBS for the flow cytometry assay.
The inventors developed an E8 basal medium (consisting of E8 media without NaHCO3, insulin, bFGF, or TGFβ; i.e., containing DMEM/F-12, L-ascorbic acid, selenium, and transferrin). This E8 basal medium was used in a differentiation protocol for human H1 ESCs with initial WNT activation (using GSK3β inhibitor, CHIR99021) applied to the cells in culture at days 0-1 (i.e., days following initiation of the stem cell differentiation protocol; day 0 is the day on which the stem cell differentiation protocol begins when the previously plated cells reach at least 75% confluence and the specific cell culture media are applied to the cells to being the cardiomyocyte differentiation protocol, day 1 is the next day in which specific media may be applied to the cells, and day 2 is the following day, etc.). […]
On the technique in general: In flow cytometry, cells or beads pass a laser one at a time.

The subject of experiment [1] is Brachyury (T), Wnt3A, Axin2, KDR, GATA4. Nature of the experiment: Real-time PCR of stage-specific marker expression during cardiac differentiation. It is filed as cell-based, human. The procedure:
Real-time PCR: RNA was purified using TRI Reagent™ Solution according to Ambion's protocol. Residual DNA was removed using the TURBO DNA-Free™ kit. Reverse transcription was carried out with Maxima H Minus Reverse Transcriptase (Thermo Scientific) primed with Poly N15-mer (Eurofins) with the recommended protocol. Prior to PCR, RNA template was removed with addition of Ambion Ribonuclease H from E. coli. Real-time PCR was performed on the BIO-RAD CFX96 using SsoAdvanced™ Universal SYBR® Green Supermix. PCR primers were listed in the supplementary table.
To investigate the function of heparin in mesoderm determination and cardiac specification, stage-specific marker expression levels were measured by qPCR (FIG. 33).
Background: In qPCR the cycle at which signal appears reflects the starting amount.

For a further experiment, the system named is H1 ESCs. Nature of the experiment: Live cell number yield after 10 days differentiation. It is filed as cell-based, human. To be noted: WNT inhibitor in the presence of heparin.
Text: as §1, with “The growth factors, inhibitors, and enzymes used in culture were: Activin A (10 ng/ml, R&D, 338-AC/CF), BMP4 (10 ng/ml, R&D, 314-BP/CF), FGF2 (100 ng/ml, Peprotech, 100-18B), TGFβ1 (1.74 ng/ml, R&D, 240-B/CF), Dorsomorphin (3 μM, Stemgent, 04-0024), LDN-193189 (0.1 μM, Stemgent, 04-0074), PD0325901 (1 μM, Stemgent, 04-0008), SB431542 (3 μM, Selleckchem, s1067), Heparin (Sigma, H3149), Heparinase I (New England Biolabs, P0735S).” left out

For a further experiment, the system named is Human ESCs. The experiment can be described thus: High density survival screening of human ESCs in E8 medium with additives (Alkaline Phosphatase staining). The conditions noted are these: for cell death and differentiation at high density: E8 medium supplemented, 5 days after initial confluence; for pluripotent stem cell survival and differentiation efficiency: E8 medium, cells near confluence, additives added, AP staining. The class given is cell-based. The procedure: H1 hESCs were cultured in E8 media to 60% confluence, and then continually cultured for 2 days in E8 media with indiated additives. Alkaline Phosphatase (AP) staining was performed to show the pluripotent stem cells. Dark staining represents the survival of hESC colonies.
Additives are indicated (glycogen, glycogen+lipid+heparin). H1 and H9 hESCs were cultured in E8 media to 60% confluence, and then continually cultured for 2 days in E8 media with indicated additives. Two parallel experiments were performed in incubators in either good or bad condition.
FIGS. 6a and 6b show cell proliferation and spontaneous differentiation at high density with trehalose and CM-dextran. In FIG. 6a, HI hESCs were cultured in E8 media to >90 confluence, and then continually cultured for 5 days in E8 media with indicated additives. Phase contrast images show the survival rates of the cells. Note that most of the cells in control conditions died and few cells regrew, while Trehalose and CM-Dextran treated cells survived in high confluence but some of them started to differentiate. In FIG. 6b, qPCR of pluripotent and differentiated genes expression is shown for the samples in FIG. 6a.
First, initial screening assays were carried out with different additives. In this assay, human embryonic stem cells (ESCs) are grown to near confluence in E8 medium. The additives in the set of experiments described herein are selected from trehalose, CM-Dextran, lipid mix, heparin, glycogen and albumin. Cells that were untreated served as the controls. The protocol is set forth below:
1. Human ESCs were expanded with EDTA dissociation at 1:6 ratio.
2. E8 medium was changed every day.
3. After 2-3 days, when cell density reached around 70-80% confluency.
4. Change medium, and different treatments were applied to the cells in addition to fresh E8 every day.
5. Cells in E8 started to die 1-2 days after they reached 100% confluency.
6. Plates were stained with Alkaline Phosphatase staining (APS) kit (Vector Lab) to determine pluripotency maintenance. After a few days, the plates are stained with Alkaline Phosphatase Staining (APS). The cell viability reagent PrestoBlue can also be used to measure live cells. […]

Experiment [2] has as its system cardiomyocyte differentiation. The experiment can be described thus: Cell death/survival during cardiomyocyte differentiation in supplemented E8 medium (Test 1 and Test 3). The class given is cell-based, human. To be noted: Test 1 and Test 3, cell survival at day 3. From the text: Cell survival at day 3 is shown.
The subject of a further experiment is NKX2-5, TBX5 and TNNT2. The experiment can be described thus: qPCR of cardiac markers after Test 3 protocol differentiation. The class given is cell-based, human. The procedure:
Expression of Nkx.2, TBX5 and cTnT are shown as determined by qPCR. qPCR was performed assess relative mRNA expression of cardiac markers for cells following Test3 protocol differentiation.
Gene expression during differentiation was examined, and it was shown that the new factors affected specific gene expression during differentiation.

Take `Cc1ccc2nc(NC(=O)CSc3nc4c(c(=O)n3-c3ccccc3)SCC4)sc2c1` [IWP2]: the “cardiomyocyte purity at day 10” value with hPSCs (H1 ESCs, CHIR99021 days 0-1, IWP2 days 2-5, no heparin, no albumin or B27) is recorded as ≤ 50%. In the experiment with hPSCs, the “efficiencies of cardiac differentiation” value is on record as “comparable efficiencies of cardiac differentiation”. For the same molecule, the “cardiac differentiation (CTNT and NKX2.5 staining)” value with hPSCs (increasing IWP2 dosage, without heparin) is “did not significantly enhance cardiac differentiation”. The “Axin2 expression at day 5” value in experiment [1] (all 5 hPSC lines) is “inhibited”. For the same molecule, in experiment [1] (qPCR, day 5, 7 different human PSC lines), the “expression of cardiac progenitor marker GATA4” value was “promoted”.

On to `O=C(Nc1cccc2cccnc12)c1ccc(N2C(=O)[C@@H]3[C@H](C2=O)[C@@H]2C=C[C@H]3C2)cc1` [IWR1], for which, in the experiment on hPSCs, the “efficiencies of cardiac differentiation” value was “comparable efficiencies of cardiac differentiation”. Moreover, the “cell death and cardiomyocyte yield” value with H1 ESCs is “caused more cell death and yielded fewer cardiomyocytes”.

For the molecule `Oc1nc(-c2ccc(C(F)(F)F)cc2)nc2c1CSCC2` [XAV939], the “efficiencies of cardiac differentiation” value with hPSCs is “comparable efficiencies of cardiac differentiation”.

In the case of `OC[C@H]1O[C@H](O[C@H]2O[C@H](CO)[C@@H](O)[C@H](O)[C@H]2O)[C@H](O)[C@@H](O)[C@@H]1O` [trehalose, Trehalose], in the experiment on Human ESCs, the “cell death and differentiation at high density” value was “little cell death, and the cells differentiated”; the “pluripotent stem cell survival and differentiation efficiency” value is “enhanced pluripotent stem cell survival and differentiation efficiency”. Moreover, the “cell death during differentiation” value in experiment [2] is given as “suppressed cell death during differentiation”. In the experiment with NKX2-5, TBX5 and TNNT2, the “cardiomyocyte differentiation by mRNA expression of NKX2-5, TBX5 and TNNT2” value was “promoted cardiomyocyte differentiation”.

As to CM-dextran, in the experiment on Human ESCs, the “cell death and differentiation at high density” value is “little cell death, and the cells differentiated”; the “pluripotent stem cell survival and differentiation efficiency” value is “enhanced pluripotent stem cell survival and differentiation efficiency”. For the same molecule, in experiment [2], the “cell death during differentiation” value was “suppressed cell death during differentiation”. Also, in the experiment on NKX2-5, TBX5 and TNNT2, the “cardiomyocyte differentiation by mRNA expression of NKX2-5, TBX5 and TNNT2” value is “promoted cardiomyocyte differentiation”.

B1: heparinase I: bacteroides enzyme that selectively cleaves the glycosidic linkage between hexosamines and uronic acids in heparin (protein, UniProt Q05819 22-384, looked up)
Heparin lyase I: QQKKSGNIPYRVNVQADSAKQKAIIDNKWVAVGINKPYALQYDDKLRFNGKPSYRFELKAEDNSLEGYAAGETKGRTELSYSYATTNDFKKFPPSVYQNAQKLKTVYHYGKGICEQGSSRSYTFSVYIPSSFPDNATTIFAQWHGAPSRTLVATPEGEIKTLSIEEFLALYDRMIFKKNIAHDKVEKKDKDGKITYVAGKPNGWKVEQGGYPTLAFGFSKGYFYIKANSDRQWLTDKADRNNANPENSEVMKPYSSEYKTSTIAYKMPFAQFPKDCWITFDVAIDWTKYGKEANTILKPGKLDVMMTYTKNKKPQKAHIVNQQEILIGRNDDDGYYFKFGIYRVGNSTVPVTYNLSGYSETAR
As to B1, the “effect of heparin in the promotion of cardiac differentiation” value in the experiment with hPSCs (co-treatment with heparinase I and heparin) is given as “dramatically blocked”. Further, the “cardiac cell differentiation seen with IWP2 treatment” value with hPSCs (heparinase I with IWP2) is reported as “significantly suppressed”.
